From patent US20090227555A2, “Novel Pyridine Compounds” (priority 2005, published 2009)
Read-outs that look alike come from different tables or passages of the source.

Molecular target: T1, P2Y12 receptor (Homo sapiens, UniProt Q9H244)
T1 construct: expressed in transfected cells; host or cells: CHO cells (membrane preparation)
Test: Functional inhibition of 2-Me-S-ADP induced P2Y12 signalling (35S-GTPγS, cell membranes from P2Y12 transfected CHO-cells)
Type: biochemical
Source text: Functional inhibition of—the P2Y12 receptor can be measured by in vitro assays using cell membranes from P2Y12 transfected CHO-cells. Inhibition of platelet aggregation as a result of P2Y12 antagonism is best measured by ADP-induced aggregation of washed human platelets, activation of the platelet fibrinogen receptor (GPIIb/IIIa), or aggregation in whole blood via residual platelet counting. Detailed methodology is indicated below.
Functional inhibition of 2-Me-S-ADP induced P2Y12 signalling: 5 μg of membranes were diluted in 200 μl of 200 mM NaCl, 1 mM MgCl2, 50 mM HEPES (pH 7.4), 0.01% BSA, 30 μg/ml saponin and 10 μM GDP. To this was added an EC80 concentration of agonist (2-methyl-thio-adenosine diphosphate), the required concentration of test compound and 0.1 μCi ^35S-GTPγS. The reaction was allowed to proceed at 30° C. for 45 min. Samples were then transferred on to GF/B filters using a cell harvester and washed with wash buffer (50 mM Tris (pH 7.4), 5 mM MgCl2, 50 mM NaCl). Filters were then covered with scintilant and counted for the amount of ^35S-GTPγS retained by the filter. Maximum activity was that determined in the presence of the agonist and minimum activity in the absence of the agonist following subtraction of the value determined for non-specific activity.

T1 sequence (Q9H244 whole entry): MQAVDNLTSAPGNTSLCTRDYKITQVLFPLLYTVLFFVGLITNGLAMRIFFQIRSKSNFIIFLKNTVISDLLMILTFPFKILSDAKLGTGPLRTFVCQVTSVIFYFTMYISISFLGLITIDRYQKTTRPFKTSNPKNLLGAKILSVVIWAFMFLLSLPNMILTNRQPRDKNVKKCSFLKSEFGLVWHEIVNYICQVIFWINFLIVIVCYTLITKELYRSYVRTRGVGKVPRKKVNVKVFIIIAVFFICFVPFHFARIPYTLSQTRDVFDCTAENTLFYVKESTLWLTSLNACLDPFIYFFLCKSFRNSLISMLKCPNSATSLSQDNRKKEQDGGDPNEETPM

| SMILES | IC50 (5 μg membranes, EC80 concentration of agonist 2-methyl-thio-adenosine diphosphate, 35S-GTPγS, 30° C., 45 min, read-out: IC50) [µM] | IC50 [µM] |
| --- | --- | --- |
| CCOC(=O)c1cnc(N2CCN(C(=O)NS(=O)(=O)c3ccccc3)CC2)c(Cl)c1 [Example 10, Ethyl 5-chloro-6-(4-{[(phenylsulfonyl)amino]carbonyl}piperazin-1-yl)nicotinate] | 0.61 |  |
| CC(C)OC(=O)c1cnc(N2CCN(C(=O)NS(=O)(=O)c3ccc(Cl)s3)CC2)c(Cl)c1 [Example 18, Isopropyl 5-chloro-6-[4-({[(5-chloro-2-thienyl)sulfonyl]amino}carbonyl)piperazin-1-yl]nicotinate] |  | 0.52 |
